Biological target: human recombinant P2X7 receptor (Homo sapiens (Human), UniProt Q99572)
Test: YO-PRO assay: P2X7 receptor antagonistic activity
Type: cell-based
Settings: HEK cells expressing human P2X7
Description: The P2X7 receptor antagonistic activity of the compounds of formula (I) is determined in accordance with the following experimental method.
Cell Line Generation and YO-PRO Assay
Cell line generation was performed in general according to established molecular cloning protocols. Specifically, RNA was extracted from human whole blood using the Qiagen RNeasy kit (Qiagen, CH) according to the manufacturer's instructions. Subsequently cDNA was made (Superscript II, Invitrogen AG, CH) and the human P2X7 gene (genbank ref. BC011913) was amplified with the following primers: […] and […]. The amplified sequence was subsequently ligated into a pcDNA3.1 (+) NotI, NheI digested plasmid. […] Following a 24 h exposure to DNA, cells were trypsinized and re-seeded at low density in the presence of 250 μg Geneticin. Geneticin resistant cells were then selected during two consecutive rounds of cloning by serial limiting dilution with visual inspection. Individual clones were screened for P2X7 expression by applying ATP and recording the resultant uptake of YO-PRO1. Specific cell clones were chosen based on RNA and protein expression. HEK cells stably expressing P2X7 were used to screen drugs using the YO-PRO1 assay. Cells were grown to confluency in adherent culture at 37° C. in a humidified 5% CO2 incubator (split 1/5 every 3-4 days with DMEM, 10% FCS, 1% Penicillin/Streptomycin, 250 μg/ml Geneticin). Adherent cells were detached by incubation with Trypsine (1 ml per 165 cm^2 dish) for 2 minutes, then washed off with 10 ml PBS (without Mg^2+ and Ca^2+), and resuspended in DMEM, 10% FCS, 1% Penicillin/Streptomycin, no Geneticin. […] During this time period, four time points were taken. Each time point comprised the average of several measurements made within a few seconds. […] The FLIPR tetra was equipped with Molecular Devices Screen Works system control software to define and run experimental protocols. […] For IC50 measurements the maximum intensity is plotted against the concentration of compound to determine IC50 values.

Sequence of human recombinant P2X7 receptor (Q99572 whole entry): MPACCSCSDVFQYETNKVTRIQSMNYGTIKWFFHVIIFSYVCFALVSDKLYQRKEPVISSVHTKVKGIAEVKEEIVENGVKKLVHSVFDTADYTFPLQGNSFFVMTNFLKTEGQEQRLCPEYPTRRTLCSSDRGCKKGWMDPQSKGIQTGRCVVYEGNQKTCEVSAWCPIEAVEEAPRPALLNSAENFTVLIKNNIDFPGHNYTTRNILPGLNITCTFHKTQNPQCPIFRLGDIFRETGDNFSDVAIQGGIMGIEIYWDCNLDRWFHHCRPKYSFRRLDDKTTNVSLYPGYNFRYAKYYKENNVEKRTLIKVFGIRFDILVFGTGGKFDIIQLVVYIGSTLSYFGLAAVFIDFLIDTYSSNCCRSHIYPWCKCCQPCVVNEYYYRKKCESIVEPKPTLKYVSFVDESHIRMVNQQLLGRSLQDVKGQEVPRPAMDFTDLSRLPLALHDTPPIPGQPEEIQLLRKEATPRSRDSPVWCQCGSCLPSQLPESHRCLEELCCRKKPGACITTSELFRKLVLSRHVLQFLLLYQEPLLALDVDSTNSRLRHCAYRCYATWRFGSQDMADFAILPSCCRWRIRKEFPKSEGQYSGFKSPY

COc1ccnc2c1C(NC(=O)Cc1cccc(C(F)(F)F)c1Cl)CO2 (racemic) [Example 139, rac-2-(2-Chloro-3-trifluoromethyl-phenyl)-N-(4-methoxy-2,3-dihydro-furo[2,3-b]pyridin-3-yl)-acetamide]
IC50: 272 nM

Cc1ccc(F)c(CC(=O)NC2COc3ncccc32)c1Cl (racemic) [Example 42, rac-2-(2-Chloro-6-fluoro-3-methyl-phenyl)-N-(2,3-dihydro-furo[2,3-b]pyridin-3-yl)-acetamide]
IC50: 641 nM

N#Cc1cccc(CC(=O)NC2COc3ncccc32)c1Cl (single isomer, unassigned) [Example 98, 2-(2-Chloro-3-cyano-phenyl)-N-2,3-dihydro-furo[2,3-b]pyridin-3-yl-acetamide]
IC50: 29 nM

CC(C(=O)NC1COc2ncccc21)c1ccc(Cl)cc1Cl (single isomer, unassigned) [Example 95, 2-(2,4-Dichloro-phenyl)-N-2,3-dihydro-furo[2,3-b]pyridin-3-yl-propionamide]
IC50: 104 nM

O=C(Cc1cccc(C(F)(F)F)c1Cl)NC1COc2ncccc21 (single isomer, unassigned) [Example 73, 2-(2-Chloro-3-trifluoromethyl-phenyl)-N-(2,3-dihydro-furo[2,3-b]pyridin-3-yl)-acetamide]
IC50: 9.9 nM

O=C(Cc1c(F)cc(Cl)cc1Cl)NC1COc2ncccc21 (racemic) [Example 76, rac-2-(2,4-Dichloro-6-fluoro-phenyl)-N-(2,3-dihydro-furo[2,3-b]pyridin-3-yl)-acetamide]
IC50: 90 nM

Cc1cc(Cl)cc(Cl)c1CC(=O)NC1COc2cncc(C)c21 (racemic) [Example 131, rac-2-(2,4-Dichloro-6-methyl-phenyl)-N-(4-methyl-2,3-dihydro-furo[2,3-c]pyridin-3-yl)-acetamide]
IC50: 14 nM

O=C(Cc1cccc(Cl)c1C(F)(F)F)NC1COc2ncccc21 (racemic) [Example 97, rac-2-(3-Chloro-2-trifluoromethyl-phenyl)-N-(2,3-dihydro-furo[2,3-b]pyridin-3-yl)-acetamide]
IC50: 15 nM

O=C(Cc1ccc(C(F)(F)F)cc1)NC1COc2ncccc21 (racemic) [Example 16, rac-N-(2,3-Dihydro-furo[2,3-b]pyridin-3-yl)-2-(4-trifluoromethyl-phenyl)-acetamide]
IC50: 1170 nM

CCc1cc(Cl)cc(Cl)c1CC(=O)NC1COc2ncccc21 (racemic) [Example 32, rac-2-(2,4-Dichloro-6-ethyl-phenyl)-N-(2,3-dihydro-furo[2,3-b]pyridin-3-yl)-acetamide]
IC50: 23 nM

Cc1c(Cl)cc(C(F)(F)F)c(CC(=O)NC2COc3ncccc32)c1F (racemic) [Example 40, rac-2-(4-Chloro-2-fluoro-3-methyl-6-trifluoromethyl-phenyl)-N-(2,3-dihydro-furo[2,3-b]pyridin-3-yl)-acetamide]
IC50: 1580 nM

O=C(Cc1cccc(C(F)(F)F)c1Cl)NC1COc2nc(Cl)ccc21 (racemic) [Example 143, rac-N-(6-Chloro-2,3-dihydro-furo[2,3-b]pyridin-3-yl)-2-(2-chloro-3-trifluoromethyl-phenyl)-acetamide]
IC50: 65 nM

O=C(Cc1ccc(Cl)cc1C(F)(F)F)NC1COc2ncccc21 (racemic) [Example 35, rac-2-(4-Chloro-2-trifluoromethyl-phenyl)-N-(2,3-dihydro-furo[2,3-b]pyridin-3-yl)-acetamide]
IC50: 193 nM

CC(C(=O)NC1CCOc2ncccc21)c1ccc(Cl)cc1 (centres unmarked) [Example 64, 2-(4-Chloro-phenyl)-N-(3,4-dihydro-2H-pyrano[2,3-b]pyridin-4-yl)-propionamide]
IC50: 1520 nM

N#Cc1c(Cl)ccc(CC(=O)NC2COc3ncccc32)c1Cl (racemic) [Example 112, rac-2-(2,4-Dichloro-3-cyano-phenyl)-N-(2,3-dihydro-furo[2,3-b]pyridin-3-yl)-acetamide]
IC50: 219 nM

CC(C(=O)NC1COc2ncccc21)c1ccc(Cl)cc1 (centres unmarked) [Example 23, 2-(4-Chloro-phenyl)-N-(2,3-dihydro-furo[2,3-b]pyridin-3-yl)-propionamide]
IC50: 828 nM

O=C(Cc1ccc(Cl)cc1Cl)NC1COc2c1ccnc2Cl (racemic) [Example 106, rac-N-(7-Chloro-2,3-dihydro-furo[2,3-c]pyridin-3-yl)-2-(2,4-dichloro-phenyl)-acetamide]
IC50: 52 nM

O=C(CCc1ccc(Cl)cc1Cl)NC1CCOc2ncccc21 (racemic) [Example 65, rac-3-(2,4-Dichloro-phenyl)-N-(3,4-dihydro-2H-pyrano[2,3-b]pyridin-4-yl)-propionamide]
IC50: 3010 nM

O=C(Cc1cccc(C(F)(F)F)c1Cl)NC1CCOc2ncccc21 (racemic) [Example 49, rac-2-(2-Chloro-3-trifluoromethyl-phenyl)-N-(3,4-dihydro-2H-pyrano[2,3-b]pyridin-4-yl)-acetamide]
IC50: 17 nM

COc1ccc(CC(=O)NC2COc3ncccc32)c(F)c1 (racemic) [Example 20, rac-N-(2,3-Dihydro-furo[2,3-b]pyridin-3-yl)-2-(2-fluoro-4-methoxy-phenyl)-acetamide]
IC50: 578 nM

O=C(Cc1c(F)cccc1C(F)(F)F)NC1COc2ncccc21 (racemic) [Example 68, rac-N-(2,3-Dihydro-furo[2,3-b]pyridin-3-yl)-2-(2-fluoro-6-trifluoromethyl-phenyl)-acetamide]
IC50: 1830 nM

Cc1cc(Cl)cc(Cl)c1CC(=O)NC1COc2nc(Cl)ccc21 (racemic) [Example 144, rac-N-(6-Chloro-2,3-dihydro-furo[2,3-b]pyridin-3-yl)-2-(2,4-dichloro-6-methyl-phenyl)-acetamide]
IC50: 50 nM

N#Cc1cccc(CC(=O)NC2COc3ncccc32)c1Cl (single isomer, unassigned) [Example 99, 2-(2-Chloro-3-cyano-phenyl)-N-2,3-dihydro-furo[2,3-b]pyridin-3-yl-acetamide]
IC50: 40 nM

O=C(Cc1c(F)cc(F)cc1F)NC1COc2ncccc21 (racemic) [Example 22, rac-N-(2,3-Dihydro-furo[2,3-b]pyridin-3-yl)-2-(2,4,6-trifluoro-phenyl)-acetamide]
IC50: 884 nM

O=C(Cc1cccc(OC(F)(F)F)c1Cl)NC1COc2ncccc21 (racemic) [Example 108, rac-2-(2-Chloro-3-trifluoromethoxy-phenyl)-N-(2,3-dihydro-furo[2,3-b]pyridin-3-yl)-acetamide]
IC50: 71 nM

O=C(Cc1c(F)ccc(F)c1Cl)NC1COc2ncccc21 (racemic) [Example 78, rac-2-(2-Chloro-3,6-difluoro-phenyl)-N-(2,3-dihydro-furo[2,3-b]pyridin-3-yl)-acetamide]
IC50: 665 nM

COc1cc(C)nc2c1C(NC(=O)Cc1cccc(C(F)(F)F)c1Cl)CO2 (racemic) [Example 135, rac-2-(2-Chloro-3-trifluoromethyl-phenyl)-N-(4-methoxy-6-methyl-2,3-dihydro-furo[2,3-b]pyridin-3-yl)-acetamide]
IC50: > 4780 nM

O=C(Cc1cccc(C(F)F)c1Cl)NC1COc2ncccc21 (racemic) [Example 114, rac-2-(2-Chloro-3-difluoromethyl-phenyl)-N-(2,3-dihydro-furo[2,3-b]pyridin-3-yl)-acetamide]
IC50: 7.6 nM

Cc1cc(CC(=O)NC2CCOc3ncccc32)on1 (racemic) [Example 62, rac-N-(3,4-Dihydro-2H-pyrano[2,3-b]pyridin-4-yl)-2-(3-methyl-isoxazol-5-yl)-acetamide]
IC50: 2080 nM

O=C(Cc1c(Cl)cc(Cl)cc1CO)NC1COc2ncccc21 (racemic) [Example 103, rac-2-(2,4-Dichloro-6-hydroxymethyl-phenyl)-N-(2,3-dihydro-furo[2,3-b]pyridin-3-yl)-acetamide]
IC50: 16 nM

Cc1ccnc2c1C(NC(=O)Cc1cccc(C(F)(F)F)c1Cl)CO2 (racemic) [Example 137, rac-2-(2-Chloro-3-trifluoromethyl-phenyl)-N-(4-methyl-2,3-dihydro-furo[2,3-b]pyridin-3-yl)-acetamide]
IC50: 37 nM

O=C(NC1CCOc2ncccc21)C1(c2ccc(Cl)cc2Cl)CC1 (racemic) [Example 58, rac-1-(2,4-Dichloro-phenyl)-cyclopropanecarboxylic acid (3,4-dihydro-2H-pyrano[2,3-b]pyridin-4-yl)-amide]
IC50: 294 nM

O=C(Cc1ccc(F)cc1F)NC1CCOc2ncccc21 (racemic) [Example 51, rac-2-(2,4-Difluoro-phenyl)-N-(3,4-dihydro-2H-pyrano[2,3-b]pyridin-4-yl)-acetamide]
IC50: 1690 nM

N#Cc1cccc(CC(=O)NC2COc3ncccc32)c1C(F)(F)F (racemic) [Example 113, rac-2-(3-Cyano-2-trifluoromethyl-phenyl)-N-(2,3-dihydro-furo[2,3-b]pyridin-3-yl)-acetamide]
IC50: 28 nM

O=C(Cc1ccc(Cl)cc1)NC1COc2ncccc21 (racemic) [Example 15, rac-2-(4-Chloro-phenyl)-N-(2,3-dihydro-furo[2,3-b]pyridin-3-yl)-acetamide]
IC50: 1410 nM

Source: patent US9221832B2, “Heterocyclic amide derivatives as P2X7 receptor antagonists” (ACTELION PHARMACEUTICALS LTD., priority 2011, dated 2015)
